{"source": "patent US9816994B2", "about": "“Method for treating a blood component containing sample” (ARKRAY, Inc., priority 2012, dated 2017)", "key": {"[1]": {"test_system": "SNU-1 gastric cancer cells", "test": "Assessment of damage to cancer cells (trypan blue survival rate), SNU-1", "type": "cell-based, human", "settings": "10 minutes after a contact with surfactant, 2.5 w/v %", "experimental": "Cells of SNU-1, MCF-7, SW620, PC3, and NCI-358 derived from gastric cancer, breast cancer, large intestinal cancer, prostate cancer, and lung cancer were prepared to be 2×10^6 Cells/ml and used. The cancer cells were prepared in the following manner. 50 μL of a cancer cell suspension in the serum-including medium and 50 μL of the aqueous solution of the surfactant were added into the 1.5 ml microcentrifuge tube, stirred with pipetting so as to make the solution homogeneous. Later, the solution was allowed to stand at an ambient temperature of 23° C. for about 10 minutes so as to proceed the reaction. […] Provided that the number of cells in a reaction liquid to which distilled water had been added in place of the reagent being 100%, the survival rate was calculated from the number of cells survived 10 minutes after (Example 1) and 30 minutes after (Example 2) from the reaction with the aqueous solution of the surfactant. […]\nA mixture of the surfactant No. 1 and either the surfactant No. 2 or No. 3 was prepared at a mixing ratio of 10:0 to 0:10 (weight ratio: the total concentration of the surfactants was 2.5 w/v %). […] The survival rate was calculated from the number of cells survived after the reaction with the mixture of surfactants, provided that the number of cells in a reaction liquid to which distilled water had been added in place of the reagent being 100%. […]"}, "leukocytes": {"test_system": "leukocytes", "test": "Assessment of damage to leukocytes (trypan blue survival rate)", "type": "cell-based", "experimental": "Leukocytes were separated from 10 ml of fresh blood in accordance with HetaSep protocol (manufactured by STEMCELL (trade name) Technologies), which was suspended in 1 ml of PBS(−) and collected in a 1.5 ml disposable microtube (a microcentrifuge tube with trade name of DSP-MC-15A manufactured by Nichiryo Co., Ltd.). Since a small amount of erythrocytes were still included in the separated leukocytes, the erythrocytes were eliminated by using ammonium chloride (supplied by STEMCELL (trade name) Technologies) in accordance with the attached document, and the leukocytes were collected through centrifugation, washed in PBS(−), and then suspended in 1 ml of a serum-including medium. 50 μL of leukocyte suspension in the serum-including medium and 50 μL of the aqueous solution of the surfactant were mixed in the 1.5 ml microcentrifuge tube, and the mixed solution was stirred with pipetting about five times so that the solution would be homogeneous. […] Provided that the number of cells in a reaction liquid to which distilled water had been added in place of the reagent being 100%, the survival rate was calculated from the number of cells survived 10 minutes after (Example 1) and 30 minutes after (Example 2) from the reaction with the aqueous solution of surfactant."}, "[2]": {"test_system": "MCF-7 breast cancer cells", "test": "Assessment of damage to cancer cells (trypan blue survival rate), MCF-7", "type": "cell-based, human", "settings": "10 minutes after a contact with surfactant, 2.5 w/v %", "experimental": "(§1) Cells of SNU-1, MCF-7, SW620, PC3, and NCI-358 derived from gastric cancer, breast cancer, large intestinal cancer, prostate cancer, and lung cancer were prepared to be 2×10^6 Cells/ml and used. The cancer cells were prepared in the following manner. 50 μL of a cancer cell suspension in the serum-including medium and 50 μL of the aqueous solution of the surfactant were added into the 1.5 ml microcentrifuge tube, stirred with pipetting so as to make the solution homogeneous. Later, the solution was allowed to stand at an ambient temperature of 23° C. for about 10 minutes so as to proceed the reaction. Then, the reaction liquid in the microcentrifuge tube was stirred with pipetting so as to disperse the cells, and subsequently, 50 μL of the liquid was dispensed into another microcentrifuge tube and 50 μL of 0.4% trypan blue stain solution (Invitrogen) was mixed therein. This was injected into a counting chamber so as to count living cells that had not been stained with the trypan blue. Provided that the number of cells in a reaction liquid to which distilled water had been added in place of the reagent being 100%, the survival rate was calculated from the number of cells survived 10 minutes after (Example 1) and 30 minutes after (Example 2) from the reaction with the aqueous solution of the surfactant. […]"}, "[3]": {"test_system": "PC3 prostate cancer cells", "test": "Assessment of damage to cancer cells (trypan blue survival rate), PC3", "type": "cell-based, human", "settings": "10 minutes after a contact with surfactant, 2.5 w/v %", "experimental": "as §1"}, "erythrocytes": {"test_system": "erythrocytes", "test": "Measurement of lysis time of erythrocytes (absorbance at 650 nm, micro-plate reader)", "type": "cell-based, human", "experimental": "As a sample containing erythrocytes, blood that had been collected from a vein of a healthy person by use of a vacuum blood-collecting vessel (EDTA including 2K) was used. 30 μL of the sample containing the blood was dispensed onto a 96-well microplate, in which 30 μL of the aqueous solution of surfactant was mixed and stirred five times with pipetting, thereby allowing the reaction solution to react homogeneously. The absorbance was measured every one minute with a micro-plate reader. The moment at which the absorbance became 0.5 or lower at a wavelength of 650 nm was determined as the lysis of the blood cells. The results are shown in Table 3 below (Examples 1 and 2). In Examples 1 and 2, the absorbance reached 0.5 within the time period from 30 minutes to 60 minutes after starting the measurement. On the other hand, in Comparative Example 9 where the aqueous solution of the surfactant was replaced by distilled water, the absorbance did never reach 0.5 even 60 minutes after from the start of the measurement. The micro-plate reader used herein was Thermo Labsystems Multiskan Ascent 35 manufactured by Thermo Labsystems."}, "[4]": {"test_system": "NCI-H358 lung cancer cells", "test": "Assessment of damage to cancer cells (trypan blue survival rate), NCI-H358", "type": "cell-based, human", "settings": "10 minutes after a contact with surfactant, 2.5 w/v %", "experimental": "as §1"}, "[5]": {"test_system": "SW620 large intestinal cancer cells", "test": "Assessment of damage to cancer cells (trypan blue survival rate), SW620", "type": "cell-based, human", "settings": "10 minutes after a contact with surfactant, 2.5 w/v %", "experimental": "as §1"}}}
{"substance": "polyoxyethylene octyl dodecylether (EO=25) [Surfactant No. 1]", "values": [{"measurement": "Cancer cell survival rate (%) SNU-1 Gastric cancer", "setting": "[1]", "value": 86.1, "unit": "%"}, {"measurement": "selectivity of lowering survival rate, leukocytes against cancer cells", "setting": "leukocytes; 2.5 w/v % aqueous solution, 10 and 30 minutes", "value": "lower selectively the survival rate of the leukocytes rather than cancer cells"}, {"measurement": "Leukocyte survival rate (%)", "setting": "leukocytes; 10 minutes after contact, 2.5 w/v %, 23° C., distilled water = 100%", "value": 71.8, "unit": "%"}, {"measurement": "Cancer cell survival rate (%) MCF-7 Breast cancer", "setting": "[2]", "value": 112.3, "unit": "%"}, {"measurement": "Cancer cell survival rate (%) PC3-9 Prostate cancer", "setting": "[3]", "value": 101.8, "unit": "%"}, {"measurement": "Lysis time to reach absorbance of 0.5", "setting": "erythrocytes; surfactant (2.5 w/v %), mixing ratio 2:8 (No. 1 is 80%)", "value": "30 to 60", "unit": "min"}, {"measurement": "Lysis time to reach absorbance of 0.5", "setting": "erythrocytes; surfactant used alone, preparation concentration 2.5 w/v %", "value": "30 to 60", "unit": "min"}, {"measurement": "Cancer cell survival rate (%) MCI-358 Lung cancer", "setting": "[4]", "value": 89.9, "unit": "%"}, {"measurement": "Cancer cell survival rate (%) SW620 Large intestinal cancer", "setting": "[5]", "value": 81, "unit": "%"}]}
